# Test results: patent US20070191402A1, “Method of searching substrate having antidiabetic activity” (KYOWA HAKKO KOGYO CO., LTD., priority 2002, published 2007)
# What was measured:
# [1] = test system: pancreatic β cell (MIN6 cell); assay: Inhibition of binding of [3H]-labeled Compound 16 to pancreatic β cell; parameters: species or system murine; details: test compound 1 μmol/l; 10 nmol/l [3H]-labeled Compound 16; MIN6 cell, 4° C.
# Method: MIN6 cell cultured to almost confluence in a 24-well plate for cell culture (manufactured by Corning) was washed twice with KRH buffer (119 mmol/l NaCl, 4.74 mmol/KCl, 2.54 mmol/l calcium chloride (CaCl2), 1.19 mmol/l magnesium sulfate (MgSO4), 1.19 mmol/l potassium dihydrogen phosphate (KH2PO4), 10 mmol/l HEPES, 2 mmol/l glucose, 0.1 w/v % bovine serum albumin (BSA), pH 7.3). Subsequently, the KRH buffer was added at 1 ml per well, for preincubation at 37° C. for 45 minutes. After preincubation, the supernatant was discarded, and 0.15 ml of the KRH buffer, […] at 4° C. for one hour or longer until the reaction reached equilibrium. Subsequently, the cell was washed twice using the KRH buffer. The KRH buffer was added at 2 ml per well, which was then left to stand at room temperature for 20 minutes. The cell was again washed twice by using the KRH buffer. The radioactivity remaining in each well was counted with a liquid scintillation counter to determine the binding amount.
# The difference between the binding amount of the [^3H]-labeled Compound 16 (total binding amount) under conditions with no addition of any test compound and the binding amount of the [^3H]-labeled Compound 16 (non-specific binding amount) under conditions in the presence of the Compound 16 at 10 μmol/l was defined as specific binding amount.
# According to the method described in Example 5, a substance having anti-diabetic activity was screened for, using the inhibitory activity of the binding between pancreatic β cells and [^3H]-labeled Compound 16. A tested substance was dissolved in dimethylsulfoxide and then added to give a final concentration of 1 μmol/l. The radioactivity with addition of the unlabeled Compound 16 was defined as the non-specific binding amount and the radioactivity without addition of the unlabeled Compound 16 was defined as the total binding amount, and then the individual specific binding amounts were calculated by the method described in Example 6. Using the following formula, the binding inhibition ratio was determined. [formula]
# MIN6 cell = assay: Insulin secretion test using MIN6 cell; type: cell-based, murine; details: MIN6 cell; glucose 14.5 mmol/l or 8.4 mmol/l
# Method: Culturing MIN6 cell and testing insulin secretion using MIN6 cell were carried out according to the method described in Diabetorogia, 36, 1139-1145 (1993).
# In other words, the influence of a compound on the insulin secretion activity in the presence of 14.5 mmol/l glucose was assessed by assaying the amount of insulin in the cell culture supernatant collected as follows.
# The MIN6 cell cultured in a 24-well plate was washed twice with 1 ml of buffer A [119 mmol/l NaCl, 4.74 mmol/l KCl, 2.54 mmol/l CaCl2, 1.19 mmol/l MgSO4, 1.19 mmol/l KH2PO4, 10 mmol/l 2-[4-(2-hydroxylethyl)-1-piperadinyl]ethanesulfonic acid, 0.1% BSA, pH 7.3] containing 2 mmol/l glucose. Subsequently, the resulting cell was incubated in 1 ml of the buffer A containing 2 mmol/l glucose at 37° C. for 45 minutes. The culture supernatant was exchanged with the buffer A (1 ml) containing test compounds of various concentrations and 8.4 mmol/l glucose and incubated at 37° C. for 45 minutes to collect the culture supernatant.
# Antibody-reactive insulin secreted in the culture supernatant was assayed by radioimmunoassay [Methods in Investigative and Diagnostic Endocrinology, Vol. 2A, 2B, North-Holland Publishing Co., Amsterdam (1973)] after the culture supernatant was diluted with phosphate buffer containing 1% BSA, 0.1% Tween 20, 0.12% EDTA 2Na, and 0.1% sodium azide. A standard curve was prepared by using human insulin as the standard substance, and individual insulin values were calculated on the basis of the curve.
# His-p31 protein = biological target: T1, His-p31 protein (Mus musculus, UniProt Q99LB2); assay: Enzyme activity inhibition of His-p31 protein (NADPH decrease, p-chlorobenzaldehyde); type: biochemical; details: p-chlorobenzaldehyde 250 μmol/l, NADPH 5 μmol/l, 37° C., absorbance at 340 nm
# T1 construct: a gene part encoding the full-length p31 protein was prepared by polymerase chain reaction (PCR); made in house; host or cells: Escherichia coli BL21 / pET-14b-p31
# T1 sequence (Q99LB2 20-279 limits assumed): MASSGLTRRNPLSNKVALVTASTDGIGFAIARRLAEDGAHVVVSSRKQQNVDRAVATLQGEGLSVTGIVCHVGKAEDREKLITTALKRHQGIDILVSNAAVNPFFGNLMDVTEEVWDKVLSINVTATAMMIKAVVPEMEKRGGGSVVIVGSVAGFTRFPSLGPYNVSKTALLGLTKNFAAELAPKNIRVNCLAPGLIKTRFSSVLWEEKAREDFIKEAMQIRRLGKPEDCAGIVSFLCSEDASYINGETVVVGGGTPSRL
# Method: NADPH was added to 1 ml of a solution of 10 mmol/Tris-HCl, 100 mmol/l NaCl and 2 mmol/l EDTA, pH 7.4 containing the His-p31 protein prepared in Example 12 at 1 μg/ml and p-chlorobenzaldehyde at 250 μmol/l to give a final concentration of 5 μmol/l and incubated at 37° C. Then, the NADPH decrease following the decomposition of p-chlorobenzaldehyde in the presence or absence of a tested substance was detected at the absorbance at 340 nm.
compound,measurement,setting,value
CCCN1C(=O)N2C[C@@H](Cc3ccccc3)N=C2c2[nH]c(C3CCCC3)nc21 [compound 16],Binding inhibitory activity (%),[1],100.0%
same,Insulin secretory activity (%),MIN6 cell,83.2%
same,enzyme activity inhibition of the His-p31 protein,His-p31 protein,strongly inhibited the activity of the protein
